2 substances from doi:10.1101/2025.09.29.679234, “Engineered antimicrobial-derived peptides to manipulate mixed microbial systems” (bioRxiv, 2025) can be followed below.

Marks after values point to notes of the source that are not given here. No end group written: not given here. Bounds are passed on as bounds.

The subject of one data set is indicator strains. As to the kind of experiment: Agar-well diffusion assay, specific activity of the purified peptide. Type of data set: cell-based. The conditions noted are these: agar-well diffusion method; peptide after cell adsorption-desorption and dialysis, purified 189-fold. As to the method:
Pediocin PA-1 is known to display narrow-spectrum activity against only a few species that include Lactobacillus coryniformis B-4390 and various Listeria species. We re-tested the antimicrobial spectrum of the pediocin PA-1 producer strain, Pediococcus acidilactici UL5, using agar-well diffusion assays against a few representative members of lactic acid bacteria (LAB) and Gram-negative, E. coli DH5α as a control (Figure S1). The effectiveness of the spent cell-free culture medium was evaluated by its ability to inhibit growth of the indicator strains as measured by zone of inhibition (ZOI). […] Therefore, we conclude that the primary antimicrobial secreted by P. acidilactici UL5 was pediocin PA-1.
We then proceeded to clone the pediocin operon from P. acidilactici UL5 into pSIP-P27 vector for heterologous expression in other lactic acid bacteria viz. Lactiplantibacillus plantarum WCFS1, Lactococcus cremoris MG1363 and the well-established expression host, E. coli MG1655. The pediocin operon imparted anti-listerial activity to the L. plantarum culture supernatant but not to that of L. cremoris or E. coli (Figure 1A). […] The peptide using this method was purified 189-fold with specific activity of 9,434 AU·mg^−1 as measured by agar-well diffusion method (Figure 1B, Figure S2A–C). […]

For data set [1], the system named is L. coryniformis. As to the kind of experiment: Kill curve (growth at 600 nm after 24 h). Type of data set: cell-based, Lactobacillus coryniformis. The conditions noted are these: Figure 1C, start OD600 0.05, 96-well plate, 3 pM to 3 μM, 10-fold serial dilutions. As to the method: (§1) To determine the potency of the purified pediocin PA-1, we generated kill-curves against a range of target bacteria (Figure 1B). The concentration range tested was 3 pM to 3 μM following 10-fold serial dilutions. […] This is in approximate agreement with the published potency of pediocin PA-1 [28] . Though the molecular mass of pediocin PA-1 is expected to be 4.5 kDa, we observed the partially purified peptide to migrate with an apparent mass of ~12.5 kDa (Figure 1B). However, subsequent analysis by LC-MS yielded peaks of multiple m/z with the predominant peak at the expected molecular size of 4.6 kDa (Figure S4). The purified pediocin PA-1, separated on denaturing but non-reducing SDS-PAGE (since this bacteriocin contains two crucial disulfide bonds), was subjected to agar-overlay assay using L. seeligeri as indicator organism (Figure S5).
(§2) The antimicrobial spectrum of pediocin PA-1 was assayed using a kill curve. Cultures grown overnight were resuspended in fresh medium at an OD600 of 0.05. EC50 was determined by incubating cells with varying concentrations of pediocin in a 96-well plate, and growth was measured at 600 nm after 24 h.

Data set [2] concerns L. seeligeri. The format is cell-based, Listeria seeligeri. The conditions noted are these: Figure 1C; start OD600 0.05, 96-well plate, growth at 600 nm after 24 h; 3 pM to 3 μM, 10-fold serial dilutions; read-out: EC50 (kill-curve). As to the method:
as §1, §2
Figure S7. Growth inhibition of L. seeligeri by modified and unmodified pediocin PA-1.

Data set [3] relates to L. coryniformis. As to the kind of experiment: Cell-binding assay by flow cytometry. The arrangement: species or system Lactobacillus coryniformis. As to the method:
(§3) The binding affinity and avidity of pediocin to various Gram-positive and Gram-negative bacteria were studied using flow cytometry. Late log-phase cells were washed in the sodium phosphate buffer (5 mM, pH 6.0) and resuspended at an OD600 of 10^–3 in sodium-acetate buffer (25 mM, pH 4.0), sodium phosphate buffer (5 mM, pH 6.0) or sodium phosphate buffer (5mM, pH 7.4) containing 1 % BSA (bovine serum albumin) and 100 mM NaCl. Cells were incubated with varying concentrations of the conjugated peptide at 4 °C for 30 min. The unbound peptide was removed by centrifugation, and the pellet was resuspended in their respective binding containing 1 % BSA. Flow cytometry was performed on an Attune NxT flow cytometer (Life Technologies/ThermoFisher Scientific, Carlsbad, CA). Data (≥10^4 events were recorded) was recorded using a […] (488 nm) voltage of 360 V, gating was performed on SSC-A versus SSC-H plot to reduce false events.

The subject of a further data set is B. subtilis. As to the kind of experiment: Cell-binding assay by flow cytometry. The arrangement: species or system Bacillus subtilis. As to the method: as §3
In general terms: A flow cytometer gives signals particle by particle.

For a further data set, the system named is L. cremoris. As to the kind of experiment: Cell-binding assay by flow cytometry. To be noted: Table S1, organism printed as L. lactis. Further details: species or system Lactococcus cremoris. As to the method:
as §3

In the next data set the test system is L. casei. As to the kind of experiment: Cell-binding assay by flow cytometry. The arrangement: species or system Lacticaseibacillus casei. The conditions noted are these: Table S1. The procedure:
as §3

A further data set deals with E. coli. As to the kind of experiment: Cell-binding assay by flow cytometry. The conditions noted are these: Table S1. As to the method: as §3
The format of data set [4] is physicochemical. From the text: We then proceeded to clone the pediocin operon from P. acidilactici UL5 into pSIP-P27 vector for heterologous expression in other lactic acid bacteria viz. Lactiplantibacillus plantarum WCFS1, Lactococcus cremoris MG1363 and the well-established expression host, E. coli MG1655. The pediocin operon imparted anti-listerial activity to the L. plantarum culture supernatant but not to that of L. cremoris or E. coli (Figure 1A). Based on the degree of bioactivity, we concluded that the level of recombinant pediocin PA-1 accumulated in L. plantarum culture was […] that observed for P. acidilactici UL5 and was therefore not pursued further. Thus, for subsequent studies, we isolated pediocin PA-1 from P. acidilactici UL5 directly using the cell adsorption-desorption approach (Figure S2). […] We attempted to further purify the preparation using reverse phase HPLC with minimal enhancement in purity but a significant loss in yield (Figure S3). The peptide recovered after cell adsorption-desorption and dialysis was lyophilized for long-term storage to minimize any loss in activity. The peptide using this method was purified 189-fold with specific activity of 9,434 AU·mg^−1 as measured by agar-well diffusion method (Figure 1B, Figure S2A–C).

Data set [5] deals with L. seeligeri. As to the kind of experiment: Cell-binding assay by flow cytometry. Further details: species or system Listeria seeligeri. As to the method: as §3
The test system of the next data set is E. faecium. As to the kind of experiment: Cell-binding assay by flow cytometry. Further details: species or system Enterococcus faecium. The conditions noted are these: pH 6.0. As to the method:
as §3

The test system of data set [6] is L. seeligeri in a 5 species synthetic community. As to the kind of experiment: Depletion by FACS of FITC-labelled cells in the mixed community (16S V3-V4 amplicon sequencing of the fluorescence-negative population). Type of data set: cell-based, Listeria seeligeri. To be noted: 40 μM of Ped-FITC printed in method, 4 °C 30 min, pH 6.0, 1 % BSA, 100 mM NaCl. The text has this:
We posited that pediocin PA-1 characterized here could be a potential tool to modulate the abundance of specific species in an intact microbial community. To this end, we pursued two approaches: 1) using synthetic pediocin PA-1 to deplete specific species by killing and 2) using FITC-conjugated pediocin PA-1 to deplete specific species by cell sorting. To deplete L. seeligeri by killing, we created a synthetic community of L. casei, L. plantarum L. cremoris, E. faecium, and L. seeligeri and grew it for 2 h. We then split the culture into 3 parts to which we added 1 μM, 10 μM, or 0 (control) unmodified pediocin PA-1 (Lifetein), respectively. We observed that after 4 h, the proportion of L. seeligeri in the control (untreated) increased from 18 % to 60 %. […] Next, we assessed the ability of FITC-conjugated pediocin (Ped-FITC) and its 15-mer version to deplete the target species through cell sorting. Again, we created a synthetic community containing L. seeligeri in abundance and assessed the proportion before and after FACS of FITC labeled cells. We attempted to sequence the fluorescence-positive population but were unsuccessful due to poor DNA yield. However, the genomic DNA isolated from the fluorescence-negative population indicated depletion of more than 50 % in the proportion of L. seeligeri from the synthetic community (Figure 4B). […]

Setting [7] is: Table S1, maximum mean fluorescence intensity.
Where [8] appears, read: flow cytometry, Atto488 conjugate up to 2 μM, 4 °C 30 min, 1 % BSA, 100 mM NaCl, Hill fit, read-out: Apparent KD.
[9] abbreviates: signal did not saturate, read-out: Apparent KD.

Turning to “biosynthetic pediocin PA-1: class IIa bacteriocin partially purified from P. acidilactici UL5 by cell adsorption-desorption (KYYGNGVTCGKHSCSVDWGKATTCIINNGAMAWATGGHQGNHKC; UniProt P29430 19-62, looked up)”, the specific activity with indicator strains is listed as 9,434 AU·mg^−1. The EC50 with L. coryniformis [1] was about 1 nM; with L. seeligeri [2] it was about 13.3 nM. Moreover, the Hill co-efficient with L. coryniformis [3] (Table S1, fit MFI = MFImax[S]^n/(KD^n+[S]^n)) amounted to 1.4; with B. subtilis (Table S1, Hill fit), 0.9; in the data set on L. cremoris, 0.7; in the data set on L. casei, 0.7; in the data set on E. coli it was 0.9. Moreover, the “MFImax (×10^3)” value in the data set on L. coryniformis [3] (setting [7]) was 6.3 ± 0.3 ×10^3; in the data set on B. subtilis (setting [7]), 7 ± 1 ×10^3; in the data set on L. casei (signal did not saturate), >2* ×10^3. Moreover, the Kd was 46 ± 8 nM in the data set on L. coryniformis [3] (setting [8]); 467 ± 167 nM with B. subtilis (setting [8]); over 2000 nM with L. cremoris (setting [9]); over 2000 nM in the data set with L. casei (setting [9]); over 2000 nM with E. coli (setting [9]). Also, the “stability of recovered peptide (in words)” value in data set [4] was “the peptide recovered at the acidic pH was found to be more stable”.

As for “15-mer-FITC: FITC-conjugated 15-mer (K20-A34) fragment of pediocin PA-1 (KATTCIINNGAMAWA; also: FITC-conjugated, site not given here; UniProt P29430 38-52, looked up, fragment)”, the “binding at the tested pHs (in words)” value in the data set on L. seeligeri [5] (pH 4.0, 6.0 and 7.4, Figure S10) is “pH-dependent binding”. The Kd in the data set with L. seeligeri [5] (pH 6.0 sodium phosphate 5 mM, 1 % BSA, 100 mM NaCl, 4 °C 30 min, read-out: apparent KD) was determined as 2800 ± 300 nM. The “binding (in words)” value with E. faecium is reported as “modest binding”. Also, in [6], the “depletion in the proportion of L. seeligeri (fluorescence-negative population after FACS)” value is listed as “more than 50%”.

A word on the EC50: it is the concentration that produces a half-maximal response.
